# Values quoted from earlier work as cited in EP2103943A1, “GDF-15 for assessing a cardiovascular risk with respect to the administration of antiinflammatory drugs” (F. Hoffmann-La Roche AG, priority 2008, dated 2009).
compound,measurement,setting,value
CS(=O)(=O)c1ccc(C2=C(c3ccccc3)C(=O)OC2)cc1 [Rofecoxib],"additional cardiovascular incidents (myocardial infarction, stroke)","25 mg rofecoxib compared with a placebo, after 18 months of follow-up","16 per 1,000 treated patients"
same,blood pressure levels,"25 mg rofecoxib compared with a placebo, early post-observation phase",higher blood pressure levels
same,rise in the rate of serious thromboembolic incidents,"APPROVE study, patients without any recognisable cardiovascular risk, led to premature discontinuation",3.9 times
